Source: article PMC5218480 (PLoS ONE, 2017)

Test system: MV-4-11 cells
Test: Gene expression microarray analysis (Affymetrix PrimeView) and GSEA
Assay type: cell-based, human
Parameters: RFU PODN (11730768_x_at) / Fold change /veh PODN (11730768_x_at) / RFU LINC00158 (11744669_a_at) / Fold change /veh LINC00158 (11744669_a_at) / RFU DUSP10 (11751237_a_at) / Fold change /veh DUSP10 (11751237_a_at) / RFU ID3 (11757404_x_at) / Fold change /veh ID3 (11757404_x_at) / RFU PLEKHG5 (11737974_s_at) / Fold change /veh PLEKHG5 (11737974_s_at) / RFU LRRC4B (11730491_at) / Fold change /veh LRRC4B (11730491_at) / RFU GIMAP4 (11747438_a_at) / Fold change /veh GIMAP4 (11747438_a_at) / RFU KRT8 (11758183_x_at) / Fold change /veh KRT8 (11758183_x_at) / RFU CNN1 (11734310_a_at) / Fold change /veh CNN1 (11734310_a_at) / RFU VPS37D (11726825_at) / Fold change /veh VPS37D (11726825_at) / RFU C10orf10 (11716522_x_at) / Fold change /veh C10orf10 (11716522_x_at) / RFU KIR2DL2 /// KIR2DL4 /// KIR2DL5A /// KIR2DL5B /// KIR2DS1 /// KIR2DS2 /// KIR2DS3 /// KIR2DS4 /// KIR3DL3 /// KIR3DL3 /// KIR3DS1 (11738374_at) / Fold change /veh KIR2DL2 /// KIR2DL4 /// KIR2DL5A /// KIR2DL5B /// KIR2DS1 /// KIR2DS2 /// KIR2DS3 /// KIR2DS4 /// KIR3DL3 /// KIR3DL3 /// KIR3DS1 (11738374_at) / RFU C1QL1 (11718748_at) / Fold change /veh C1QL1 (11718748_at) / RFU TMPRSS4 (11747572_a_at) / Fold change /veh TMPRSS4 (11747572_a_at) / RFU HAMP (11756126_x_at) / Fold change /veh HAMP (11756126_x_at) / RFU RNFT2 (11725882_a_at) / Fold change /veh RNFT2 (11725882_a_at) / RFU NR4A2 (11747474_a_at) / Fold change /veh NR4A2 (11747474_a_at) / RFU ABCC12 (11746883_a_at) / Fold change /veh ABCC12 (11746883_a_at) / RFU TMEM136 (11760407_x_at) / Fold change /veh TMEM136 (11760407_x_at) / RFU CLDN22 /// WWC2 (11732394_at) / Fold change /veh CLDN22 /// WWC2 (11732394_at) / RFU HLA-DPB1 (11760878_x_at) / Fold change /veh HLA-DPB1 (11760878_x_at) / RFU SPINT1 (11716480_a_at) / Fold change /veh SPINT1 (11716480_a_at) / RFU GAP43 (11754022_s_at) / Fold change /veh GAP43 (11754022_s_at) / RFU A4GNT (11735810_at) / Fold change /veh A4GNT (11735810_at) / RFU PRB3 (11715151_x_at) / Fold change /veh PRB3 (11715151_x_at) / RFU TUBB4B (11761932_at) / Fold change /veh TUBB4B (11761932_at) / RFU CAPN14 (11732068_a_at) / Fold change /veh CAPN14 (11732068_a_at) / RFU TMCC2 (11721928_a_at) / Fold change /veh TMCC2 (11721928_a_at) / RFU IRGQ (11745062_a_at) / Fold change /veh IRGQ (11745062_a_at) / RFU FAM174B (11720279_a_at) / Fold change /veh FAM174B (11720279_a_at) / RFU TMPRSS4 (11748680_a_at) / Fold change /veh TMPRSS4 (11748680_a_at) / RFU FAM212B (11763350_a_at) / Fold change /veh FAM212B (11763350_a_at) / RFU PLEKHG5 (11743358_a_at) / Fold change /veh PLEKHG5 (11743358_a_at) / RFU ZSCAN30 (11745921_a_at) / Fold change /veh ZSCAN30 (11745921_a_at) / RFU CMKLR1 (11741424_a_at) / Fold change /veh CMKLR1 (11741424_a_at) / RFU LOC101060620 /// MAPK8IP1 (11723275_at) / Fold change /veh LOC101060620 /// MAPK8IP1 (11723275_at) / RFU SPTSSB (11747773_x_at) / Fold change /veh SPTSSB (11747773_x_at) / RFU PRSS12 (11739890_at) / Fold change /veh PRSS12 (11739890_at) / RFU BIN1 (11741810_x_at) / Fold change /veh BIN1 (11741810_x_at) / RFU WNT11 (11732464_a_at) / Fold change /veh WNT11 (11732464_a_at) / RFU C10orf10 (11716521_a_at) / Fold change /veh C10orf10 (11716521_a_at) / RFU C5orf56 (11738089_at) / Fold change /veh C5orf56 (11738089_at) / RFU CYB561 (11721691_x_at) / Fold change /veh CYB561 (11721691_x_at) / RFU ANKRD19P (11752326_a_at) / Fold change /veh ANKRD19P (11752326_a_at) / RFU OR2T12 /// OR2T33 /// OR2T8 (11738714_s_at) / Fold change /veh OR2T12 /// OR2T33 /// OR2T8 (11738714_s_at) / RFU VCAN (11748164_a_at) / Fold change /veh VCAN (11748164_a_at) / RFU JSRP1 (11732532_at) / Fold change /veh JSRP1 (11732532_at) / RFU KRTAP10-11 (11738290_x_at) / Fold change /veh KRTAP10-11 (11738290_x_at) / RFU MYO3A (11730013_a_at) / Fold change /veh MYO3A (11730013_a_at) / RFU EBF3 (11725865_a_at) / Fold change /veh EBF3 (11725865_a_at) / RFU CAMK2N1 (11719241_x_at) / Fold change /veh CAMK2N1 (11719241_x_at) / RFU C5orf56 (11738088_a_at) / Fold change /veh C5orf56 (11738088_a_at) / RFU OLFML3 (11715873_a_at) / Fold change /veh OLFML3 (11715873_a_at) / RFU LOC100653217 /// NTM (11731650_a_at) / Fold change /veh LOC100653217 /// NTM (11731650_a_at) / RFU MAPK11 (11762145_a_at) / Fold change /veh MAPK11 (11762145_a_at) / RFU FIZ1 (11724087_x_at) / Fold change /veh FIZ1 (11724087_x_at) / RFU OASL (11726364_x_at) / Fold change /veh OASL (11726364_x_at) / RFU SOX15 (11748057_x_at) / Fold change /veh SOX15 (11748057_x_at) / RFU CD79A (11719716_a_at) / Fold change /veh CD79A (11719716_a_at) / RFU HIST1H1D (11736915_at) / Fold change /veh HIST1H1D (11736915_at) / RFU CASKIN2 (11723855_a_at) / Fold change /veh CASKIN2 (11723855_a_at) / RFU LOC730098 (11760151_x_at) / Fold change /veh LOC730098 (11760151_x_at) / RFU OR4N2 (11742367_at) / Fold change /veh OR4N2 (11742367_at) / RFU PRRT2 (11749266_a_at) / Fold change /veh PRRT2 (11749266_a_at) / RFU SNX32 (11753110_a_at) / Fold change /veh SNX32 (11753110_a_at) / RFU CDHR5 (11726645_a_at) / Fold change /veh CDHR5 (11726645_a_at) / RFU RCAN1 (11760418_a_at) / Fold change /veh RCAN1 (11760418_a_at) / RFU FAM167A (11723789_a_at) / Fold change /veh FAM167A (11723789_a_at) / RFU FAM26E (11764081_at) / Fold change /veh FAM26E (11764081_at) / RFU ISYNA1 (11749810_s_at) / Fold change /veh ISYNA1 (11749810_s_at) / RFU ACY1 (11761880_at) / Fold change /veh ACY1 (11761880_at) / RFU 11764098_at / Fold change /veh 11764098_at / RFU SAMD14 (11745864_x_at) / Fold change /veh SAMD14 (11745864_x_at) / RFU NPB (11741838_a_at) / Fold change /veh NPB (11741838_a_at) / RFU TMPRSS6 (11731388_a_at) / Fold change /veh TMPRSS6 (11731388_a_at) / RFU KRTAP10-2 (11738614_at) / Fold change /veh KRTAP10-2 (11738614_at) / RFU ARHGAP8 /// PRR5-ARHGAP8 (11727945_x_at) / Fold change /veh ARHGAP8 /// PRR5-ARHGAP8 (11727945_x_at) / RFU KRTAP5-7 /// NADSYN1 (11734609_at) / Fold change /veh KRTAP5-7 /// NADSYN1 (11734609_at) / RFU RASL12 (11751679_a_at) / Fold change /veh RASL12 (11751679_a_at) / RFU CDKN2B (11736163_a_at) / Fold change /veh CDKN2B (11736163_a_at) / RFU PRF1 (11729649_at) / Fold change /veh PRF1 (11729649_at) / RFU, ZNF638 /// ZNF638-IT1 / Fold change vs veh, ZNF638 /// ZNF638-IT1 / RFU, PANK3 / Fold change vs veh, PANK3 / RFU, SH3YL1 / Fold change vs veh, SH3YL1 / RFU, ZEB2 / Fold change vs veh, ZEB2 / RFU, NRIP1 / Fold change vs veh, NRIP1 / RFU, PTTG1IP / Fold change vs veh, PTTG1IP / RFU, CAPN2 / Fold change vs veh, CAPN2 / RFU, MED14 / Fold change vs veh, MED14 / RFU, SNORA58 / Fold change vs veh, SNORA58 / RFU, C1orf63 / Fold change vs veh, C1orf63 / RFU, LRRFIP1 / Fold change vs veh, LRRFIP1 / RFU, NDUFAF7 / Fold change vs veh, NDUFAF7 / RFU, SLC12A2 / Fold change vs veh, SLC12A2 / RFU, IBTK / Fold change vs veh, IBTK / RFU, ESF1 / Fold change vs veh, ESF1 / Fold change vs veh, TMEM50B / RFU, TAOK1 / Fold change vs veh, TAOK1 / RFU, ACBD3 / Fold change vs veh, ACBD3 / RFU, TMA16 / Fold change vs veh, TMA16 / RFU, RWDD3 / Fold change vs veh, RWDD3 / RFU, BCAT1 / Fold change vs veh, BCAT1 / RFU, EDEM3 / Fold change vs veh, EDEM3 / RFU, TMEM33 / Fold change vs veh, TMEM33 / RFU, WDR75 / Fold change vs veh, WDR75 / RFU, AHCTF1 / Fold change vs veh, AHCTF1 / RFU, TFRC / Fold change vs veh, TFRC / RFU, ZDHHC17 / Fold change vs veh, ZDHHC17 / RFU, NOM1 / Fold change vs veh, NOM1 / RFU, ARL8B / Fold change vs veh, ARL8B / RFU, ZBTB11 / Fold change vs veh, ZBTB11 / RFU, TAMM41 / Fold change vs veh, TAMM41 / RFU, KIAA1704 /// LOC100996395 / Fold change vs veh, KIAA1704 /// LOC100996395 / RFU, ING1 / Fold change vs veh, ING1 / RFU, TRMT61B / Fold change vs veh, TRMT61B / RFU, FUBP3 / Fold change vs veh, FUBP3 / RFU, TP53 / Fold change vs veh, TP53 / RFU, TNKS2 / Fold change vs veh, TNKS2 / RFU, ZFP14 / Fold change vs veh, ZFP14 / RFU, ACTR2 / Fold change vs veh, ACTR2 / RFU, PPP3R1 / Fold change vs veh, PPP3R1 / RFU, PIK3R1 / Fold change vs veh, PIK3R1 / RFU, HNRNPA1 / Fold change vs veh, HNRNPA1 / RFU, RNF170 / Fold change vs veh, RNF170 / RFU, ZNF28 / Fold change vs veh, ZNF28 / RFU, RNGTT / Fold change vs veh, RNGTT / RFU, OGT / Fold change vs veh, OGT / RFU, BRD1 / Fold change vs veh, BRD1 / RFU, MARS / Fold change vs veh, MARS / RFU, ZNF655 / Fold change vs veh, ZNF655 / RFU, FAHD1 / Fold change vs veh, FAHD1 / RFU, BDP1 / Fold change vs veh, BDP1 / RFU, LRRCC1 / Fold change vs veh, LRRCC1 / RFU, ARID1A / Fold change vs veh, ARID1A / RFU, ZNF146 / Fold change vs veh, ZNF146 / RFU, ZNF330 / Fold change vs veh, ZNF330 / RFU, GPN3 / Fold change vs veh, GPN3 / RFU, C9orf123 / Fold change vs veh, C9orf123 / RFU, N4BP2L2 / Fold change vs veh, N4BP2L2 / RFU, ARFIP1 / Fold change vs veh, ARFIP1 / RFU, FAM179B / Fold change vs veh, FAM179B / RFU, BCL10 / Fold change vs veh, BCL10 / RFU, UHRF1BP1L / Fold change vs veh, UHRF1BP1L / RFU, BET1 / Fold change vs veh, BET1 / RFU, CNOT2 / Fold change vs veh, CNOT2 / RFU, ZNF268 / Fold change vs veh, ZNF268 / Fold change vs veh, ZNF507 / RFU, DGCR2 / Fold change vs veh, DGCR2 / RFU, WDSUB1 / Fold change vs veh, WDSUB1 / Fold change vs veh, HSP90B1 /// MIR3652 / RFU, ADSS / Fold change vs veh, ADSS / RFU, GK / Fold change vs veh, GK / RFU, ZNF148 / Fold change vs veh, ZNF148 / RFU, TAF9 / Fold change vs veh, TAF9 / RFU, SLC1A5 / Fold change vs veh, SLC1A5 / RFU, SLMO2 / Fold change vs veh, SLMO2 / RFU, ABCC4 / Fold change vs veh, ABCC4 / RFU, LOC101060439 /// RAP1B / Fold change vs veh, LOC101060439 /// RAP1B / RFU, RFX7 / Fold change vs veh, RFX7 / RFU, GTPBP10 / Fold change vs veh, GTPBP10 / RFU, CNEP1R1 / Fold change vs veh, CNEP1R1 / RFU, BIVM-ERCC5 /// ERCC5 / Fold change vs veh, BIVM-ERCC5 /// ERCC5 / RFU, ILF3 / Fold change vs veh, ILF3 / RFU 11762660_at / Fold change /veh 11762660_at / RFU VCAN (11757783_s_at) / Fold change /veh VCAN (11757783_s_at) / RFU DDX43 (11728927_at) / Fold change /veh DDX43 (11728927_at) / RFU KRT8 (11758188_x_at) / Fold change /veh KRT8 (11758188_x_at) / RFU NKD1 (11759106_at) / Fold change /veh NKD1 (11759106_at) / RFU SRD5A1 (11742802_a_at) / Fold change /veh SRD5A1 (11742802_a_at) / RFU TPSAB1 /// TPSB2 (11721975_s_at) / Fold change /veh TPSAB1 /// TPSB2 (11721975_s_at) / RFU GSTM3 (11746129_a_at) / Fold change /veh GSTM3 (11746129_a_at) / RFU IL23R (11737362_x_at) / Fold change /veh IL23R (11737362_x_at) / RFU TMEM51 (11727254_a_at) / Fold change /veh TMEM51 (11727254_a_at) / RFU PIWIL2 (11732686_x_at) / Fold change /veh PIWIL2 (11732686_x_at) / RFU ORM1 (11744905_x_at) / Fold change /veh ORM1 (11744905_x_at) / RFU CCDC152 (11743942_at) / Fold change /veh CCDC152 (11743942_at) / RFU ECM1 (11717891_a_at) / Fold change /veh ECM1 (11717891_a_at) / RFU IL23R (11748794_a_at) / Fold change /veh IL23R (11748794_a_at) / RFU TNFAIP8L3 (11732012_x_at) / Fold change /veh TNFAIP8L3 (11732012_x_at) / RFU MBOAT4 (11741988_at) / Fold change /veh MBOAT4 (11741988_at) / RFU 11764193_at / Fold change /veh 11764193_at / RFU TMEM53 (11763286_at) / Fold change /veh TMEM53 (11763286_at) / RFU MAGEB2 (11727129_at) / Fold change /veh MAGEB2 (11727129_at) / RFU TMEM200A (11744735_a_at) / Fold change /veh TMEM200A (11744735_a_at) / RFU CCDC152 (11751479_a_at) / Fold change /veh CCDC152 (11751479_a_at) / RFU FAM211A (11726209_a_at) / Fold change /veh FAM211A (11726209_a_at) / RFU RGS16 (11746705_a_at) / Fold change /veh RGS16 (11746705_a_at) / RFU VCAN (11755009_s_at) / Fold change /veh VCAN (11755009_s_at) / RFU RHOB (11743442_s_at) / Fold change /veh RHOB (11743442_s_at) / RFU RGS16 (11720943_a_at) / Fold change /veh RGS16 (11720943_a_at) / RFU RGS16 (11720944_at) / Fold change /veh RGS16 (11720944_at) / RFU, VPS4B / Fold change vs veh, VPS4B / RFU, CREB1 / Fold change vs veh, CREB1 / RFU, DNAJC13 / Fold change vs veh, DNAJC13 / RFU, GNAQ / Fold change vs veh, GNAQ / RFU, CDK5R1 / Fold change vs veh, CDK5R1 / RFU, ZRANB3 / Fold change vs veh, ZRANB3 / RFU, CUL4A / Fold change vs veh, CUL4A / RFU, CCNY / Fold change vs veh, CCNY / RFU, UFL1 / Fold change vs veh, UFL1 / RFU, COG3 / Fold change vs veh, COG3 / RFU, DIAPH2 / Fold change vs veh, DIAPH2 / RFU, SKA2 / Fold change vs veh, SKA2 / RFU, AFF3 / Fold change vs veh, AFF3 / RFU, LMF1 / Fold change vs veh, LMF1 / RFU, IPO11 / Fold change vs veh, IPO11 / RFU, DFFB / Fold change vs veh, DFFB / RFU, FOXP1 / Fold change vs veh, FOXP1 / RFU, CARD8 / Fold change vs veh, CARD8 / RFU, STRN3 / Fold change vs veh, STRN3 / RFU, ADK / Fold change vs veh, ADK / RFU, RASSF2 / Fold change vs veh, RASSF2 / RFU, WIPF1 / Fold change vs veh, WIPF1 / RFU, LARP1B / Fold change vs veh, LARP1B / RFU, RASA1 / Fold change vs veh, RASA1 / RFU, RB1 / Fold change vs veh, RB1 / RFU, PPFIA1 / Fold change vs veh, PPFIA1 / RFU, MAT2A / Fold change vs veh, MAT2A / RFU, CCT5 / Fold change vs veh, CCT5 / RFU, WDR92 / Fold change vs veh, WDR92 / RFU, CUX1 / Fold change vs veh, CUX1 / RFU, TTC7A / Fold change vs veh, TTC7A / RFU, TMEM135 / Fold change vs veh, TMEM135 / RFU, DEPTOR / Fold change vs veh, DEPTOR / RFU, CPM / Fold change vs veh, CPM / RFU, DNAJB6 / Fold change vs veh, DNAJB6 / RFU, CACNA2D3 / Fold change vs veh, CACNA2D3 / RFU, DTX4 / Fold change vs veh, DTX4 / RFU, TFCP2 / Fold change vs veh, TFCP2 / RFU, GMCL1 /// GMCL1P1 / Fold change vs veh, GMCL1 /// GMCL1P1 / RFU, AEBP2 / Fold change vs veh, AEBP2 / RFU, SNHG1 /// SNORD22 /// SNORD25 /// SNORD26 /// SNORD27 /// SNORD28 /// SNORD29 /// SNORD31 / Fold change vs veh, SNHG1 /// SNORD22 /// SNORD25 /// SNORD26 /// SNORD27 /// SNORD28 /// SNORD29 /// SNORD31 / Fold change (Aza/veh), C12orf56 (ProbeSet 11735607_a_at) / Fold change (ACY-1035/veh), C12orf56 (ProbeSet 11735607_a_at) / Fold change (Aza/veh), FGFR1OP (ProbeSet 11751329_s_at) / Fold change (ACY-1035/veh), FGFR1OP (ProbeSet 11751329_s_at) / Fold change (Aza/veh), VPS36 (ProbeSet 11739960_a_at) / Fold change (ACY-1035/veh), VPS36 (ProbeSet 11739960_a_at) / RFU SYPL1 (11715823_x_at) / Fold change /veh SYPL1 (11715823_x_at) / RFU IGFBP7 (11715501_s_at) / Fold change /veh IGFBP7 (11715501_s_at) / RFU REEP3 (11722064_at) / Fold change /veh REEP3 (11722064_at) / RFU IGLL1 (11728026_x_at) / Fold change /veh IGLL1 (11728026_x_at): dose or concentration left out as unconfirmed
Conditions: MV-4-11 cells, 48 hours

Nc1ncn([C@@H]2O[C@H](CO)[C@@H](O)[C@H]2O)c(=O)n1 [azacitidine]
Fold change /veh CAPN14 (11732068_a_at): 1.07
